From PubChem BioAssay AID330 (DTP/NCI, 2004)
“And” between values parts separate entries of the source, which are not always exact repeats. Equal entries are not always repeated. Toxic doses and inconclusive results are not listed. How the source made its calls: active means survival T/C of 150% or more; inactive means T/C below 125% in these data.

System: P388 leukemia ip, CD2F1 mice, survival T/C
Test: NCI In Vivo Anticancer Drug Screen. Data for tumor model P388 Leukemia (intraperitoneal) in CD2F1 (CDF1) mice
Conditions: endpoint: median survival time, higher = longer survival
Outline: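 Mice carrying the transplanted tumor received test compound or vehicle. Survival was recorded in each group, and the value is the treated-group measurement divided by that of the vehicle-treated control group.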

[1] = dose: 50.0 mg/kg/injection, schedule: Q01DX009 (ip), vehicle: saline with Tween-80
[2] = dose: 100.0 mg/kg/injection, schedule: Q01DX009 (ip), vehicle: saline with Tween-80
[3] = dose: 200.0 mg/kg/injection, schedule: Q01DX009 (ip), vehicle: saline with Tween-80
[4] = dose: 100.0 mg/kg/injection, schedule: Q04DX003 (ip), vehicle: saline
[5] = dose: 50.0 mg/kg/injection, schedule: Q01DX005 (ip), vehicle: saline with Tween-80
[6] = dose: 100.0 mg/kg/injection, schedule: Q01DX005 (ip), vehicle: saline with Tween-80
[7] = dose: 200.0 mg/kg/injection, schedule: Q01DX005 (ip), vehicle: saline with Tween-80
[8] = dose: 60.0 mg/kg/injection, schedule: Q01DX005 (ip), vehicle: saline with Tween-80
[9] = dose: 120.0 mg/kg/injection, schedule: Q01DX005 (ip), vehicle: saline with Tween-80
[10] = dose: 240.0 mg/kg/injection, schedule: Q01DX005 (ip), vehicle: saline with Tween-80
[11] = dose: 100.0 mg/kg/injection, schedule: Q04DX002 (ip), vehicle: Klucel (hydroxypropylcellulose) (HPC)
[12] = dose: 200.0 mg/kg/injection, schedule: Q04DX002 (ip), vehicle: Klucel (hydroxypropylcellulose) (HPC)
[13] = dose: 400.0 mg/kg/injection, schedule: Q04DX002 (ip), vehicle: Klucel (hydroxypropylcellulose) (HPC)
[14] = dose: 200.0 mg/kg/injection, schedule: Q04DX003 (ip), vehicle: saline
[15] = dose: 400.0 mg/kg/injection, schedule: Q04DX003 (ip), vehicle: saline
[16] = dose: 50.0 mg/kg/injection, schedule: Q01DX009 (ip), vehicle: saline
[17] = dose: 100.0 mg/kg/injection, schedule: Q01DX009 (ip), vehicle: saline
[18] = dose: 200.0 mg/kg/injection, schedule: Q01DX009 (ip), vehicle: saline
[19] = dose: 12.5 mg/kg/injection, schedule: Q01DX009 (ip), vehicle: saline with Tween-80
[20] = dose: 25.0 mg/kg/injection, schedule: Q01DX009 (ip), vehicle: saline with Tween-80
[21] = dose: 60.0 mg/kg/injection, schedule: Q01DX005 (ip), vehicle: saline
[22] = dose: 120.0 mg/kg/injection, schedule: Q01DX005 (ip), vehicle: saline
[23] = dose: 240.0 mg/kg/injection, schedule: Q01DX005 (ip), vehicle: saline

Measured: T/C

COc1ccc(C(O)c2ccc(OC)c(OC)c2)cc1OC
inactive: dose: 25.0 mg/kg/injection, schedule: Q01DX009 (ip), vehicle: other 100 % of control | dose: 50.0 mg/kg/injection, schedule: Q01DX009 (ip), vehicle: other 100 % of control | dose: 100.0 mg/kg/injection, schedule: Q01DX009 (ip), vehicle: other 96 % of control | dose: 200.0 mg/kg/injection, schedule: Q01DX009 (ip), vehicle: other 89 % of control | dose: 400.0 mg/kg/injection, schedule: Q01DX009 (ip), vehicle: other 89 % of control

O=C(Cc1ccc(-c2ccccc2)cc1)Nc1ccccn1
inactive: [1] 99 % of control | [2] 108 % of control | [3] 105 % of control

O=C(O)C(=O)c1ccc(-c2ccccc2)cc1
inactive: dose: 50.0 mg/kg/injection, schedule: Q04DX003 (ip), vehicle: saline 104 % of control | [4] 100 % of control

CC1=CC(=O)C=C/C1=N/S(=O)(=O)c1ccccc1
inactive: dose: 12.5 mg/kg/injection, schedule: Q01DX001 (ip), vehicle: saline with Tween-80 100 % of control | dose: 25.0 mg/kg/injection, schedule: Q01DX001 (ip), vehicle: saline with Tween-80 90 % of control | dose: 50.0 mg/kg/injection, schedule: Q01DX001 (ip), vehicle: saline with Tween-80 100 % of control

COC(=O)c1nc(N)nc(C(=O)OC)c1C(=O)c1ccc(Cl)cc1
inactive: dose: 60.0 mg/kg/injection, schedule: Q01DX005 (ip), vehicle: Klucel (hydroxypropylcellulose) (HPC) 103 % of control | dose: 120.0 mg/kg/injection, schedule: Q01DX005 (ip), vehicle: Klucel (hydroxypropylcellulose) (HPC) 101 % of control

COCCC1OCC(CCl)O1 (configuration not stated)
inactive: [5] 104 % of control | [6] 99 % of control | [7] 108 % of control

CC(C)(O)C(=O)N/N=C/c1ccc(Cl)cc1
inactive: [8] 101 % of control | [9] 99 % of control | [10] 100 % of control

CC1C(=O)SCC1(O)c1ccccc1 (configuration not stated)
inactive: [11] 102 % of control | [12] 103 % of control | [13] 107 % of control

CC/C(=N\NS(=O)(=O)c1ccc(C)cc1)c1ccc(C)cc1
inactive: [4] 100 % of control | [14] 98 % of control | [15] 98 % of control

CS(=O)(=O)Oc1cccn(S(C)(=O)=O)c1=O
inactive: dose: 12.5 mg/kg/injection, schedule: Q01DX009 (ip), vehicle: saline 97 % of control | dose: 25.0 mg/kg/injection, schedule: Q01DX009 (ip), vehicle: saline 92 % of control | [16] 97 % of control | [17] 97 % of control | [18] 97 % of control

OC(c1cc(-c2ccc(Cl)cc2)nc2ccccc12)C1CCCCN1 (configuration not stated)
inactive: [5] 105 % of control | [6] 113 % of control

OC1(C#Cc2ccccc2)c2ccccc2C(O)(C#Cc2ccccc2)c2c(C#Cc3ccccc3)cccc21 (configuration not stated)
inactive: [19] 87 % of control | [20] 95 % of control | [1] 97 % of control | [3] 86 % of control

N#CCCN(CCC#N)C(CCC(=O)O)C(=O)O (configuration not stated)
inactive: dose: 50.0 mg/kg/injection, schedule: Q01DX005 (ip), vehicle: saline 93 % of control | dose: 100.0 mg/kg/injection, schedule: Q01DX005 (ip), vehicle: saline 100 % of control | dose: 200.0 mg/kg/injection, schedule: Q01DX005 (ip), vehicle: saline 101 % of control

CCCCCCCOc1ccc(C(=O)O)cc1
inactive: dose: 12.5 mg/kg/injection, schedule: Q01DX009 (ip), vehicle: Klucel (hydroxypropylcellulose) (HPC) 105 % of control | dose: 25.0 mg/kg/injection, schedule: Q01DX009 (ip), vehicle: Klucel (hydroxypropylcellulose) (HPC) 111 % of control | dose: 50.0 mg/kg/injection, schedule: Q01DX009 (ip), vehicle: Klucel (hydroxypropylcellulose) (HPC) 107 % of control

Cc1ccc(-c2cs/c(=N\N=C3/CSC(=O)N3Cc3ccccc3)n2-c2ccc(C)cc2)cc1
inactive: [11] 100 % of control | [12] 107 % of control | [13] 102 % of control

CCCCOc1cc(C(=O)NCCN(CC)CC)c2ccccc2n1
inactive: dose: 6.25 mg/kg/injection, schedule: Q01DX009 (ip), vehicle: saline with Tween-80 100 % of control | [19] 113 % of control | [20] 100 % of control

CN(C)CC[Si](C)(C)N(C)C
inactive: [21] 107 % of control | [22] 102 % of control

O=C1C=C(NCC2CCCN3CCCCC23)C(=O)c2ccccc21 (configuration not stated)
inactive: dose: 94.62 mg/kg/injection, schedule: Q04DX002 (ip), vehicle: Klucel (hydroxypropylcellulose) (HPC) 112 % of control | dose: 189.25 mg/kg/injection, schedule: Q04DX002 (ip), vehicle: Klucel (hydroxypropylcellulose) (HPC) 111 % of control

CCc1cc(-c2cc(CC)[nH]n2)n[nH]1
inactive: [21] 100 % of control | [22] 97 % of control | [23] 95 % of control

Cc1cccnc1NCc1ccccn1
inactive: [5] 103 % of control | [6] 100 % of control | [7] 93 % of control

O=C1CCCCCOCCOCCOCCOCCOCCCCC1
inactive: [5] 104 % of control | [6] 96 % of control | [7] 101 % of control

CS(=O)(=O)CC1=NC(=N)N=C1CS(C)(=O)=O
inactive: [21] 100 % of control | [22] 110 % of control | [23] 96 % of control

Nc1nc2n(O)cc(-c3ccccc3)nc-2c(=O)n1
inactive: dose: 10.0 mg/kg/injection, schedule: Q01DX009 (ip), vehicle: saline with Tween-80 89 % of control | dose: 20.0 mg/kg/injection, schedule: Q01DX009 (ip), vehicle: saline with Tween-80 101 % of control | dose: 40.0 mg/kg/injection, schedule: Q01DX009 (ip), vehicle: saline with Tween-80 92 % of control

CC1=NN(c2ccccc2)C(=O)/C1=C\c1ccc([N+](=O)[O-])cc1
inactive: [8] 104 % of control | [9] 101 % of control | [10] 103 % of control

O=C(Nc1ccc2c(O)c(N=Nc3ccc(N=Nc4ccc(S(=O)(=O)O)cc4)cc3)c(S(=O)(=O)O)cc2c1)c1ccccc1
inactive: [16] 100 % of control | [17] 95 % of control | [18] 103 % of control

CC1CNC(=O)NC1=O (configuration not stated)
inactive: [1] 94 % of control | [2] 86 % of control

O=C(O)C(=O)Nc1cccc2c1ccc1c(=O)cc(C(=O)O)[nH]c12
inactive: [16] 109 % of control | [17] 109 % of control | [18] 104 % of control

COc1ccc2c(c1)nnn2C(=O)/C=C/c1ccccc1
inactive: [19] 94 % of control | [20] 107 % of control | [1] 101 % of control and 104 % of control

CC(=O)CC(C)=O.CCN(CC)CC[C-]=O.[Pd+2]
inactive: dose: 0.78 mg/kg/injection, schedule: Q04DX003 (ip), vehicle: propolene glycol 97 % of control | dose: 1.56 mg/kg/injection, schedule: Q04DX003 (ip), vehicle: propolene glycol 95 % of control | dose: 3.13 mg/kg/injection, schedule: Q04DX003 (ip), vehicle: propolene glycol 97 % of control | dose: 6.25 mg/kg/injection, schedule: Q04DX003 (ip), vehicle: propolene glycol 96 % of control | dose: 12.5 mg/kg/injection, schedule: Q04DX003 (ip), vehicle: other 123 % of control | dose: 12.5 mg/kg/injection, schedule: Q04DX003 (ip), vehicle: propolene glycol 91 % of control | dose: 25.0 mg/kg/injection, schedule: Q04DX003 (ip), vehicle: other 120 % of control

CC(C)=CCOc1cc(O)c(CC2=C(O)C(C)(C)C(=O)C(C(=O)C(C)C)=C2O)c(O)c1C(=O)c1ccccc1
inactive: dose: 0.83 mg/kg/injection, schedule: Q01DX005 (ip), vehicle: DMSO 110 % of control | dose: 1.65 mg/kg/injection, schedule: Q01DX005 (ip), vehicle: DMSO 103 % of control | dose: 3.3 mg/kg/injection, schedule: Q01DX005 (ip), vehicle: DMSO 103 % of control | dose: 6.6 mg/kg/injection, schedule: Q01DX005 (ip), vehicle: DMSO 88 % of control

N/C(C/C(=N/OC(=O)c1ccccc1)OC(=O)c1ccccc1)=N/O
inactive: [4] 101 % of control | [14] 107 % of control | [15] 99 % of control
